{"source": "patent US9809563B2", "about": "(GIFU University, priority 2014, dated 2017)", "key": {"[1]": {"settings": "rat, in vivo"}, "[2]": {"settings": "male, Crl:CD (SD), rat, in vivo, po, 1 mg/kg"}}, "note": "Structures can show the parent of a compound that is named as a salt. Where two headings read alike, the source gives them in different places."}
{"smiles": "O=C(CN1CCCC1)Nc1ccc(C(c2ccc(NC(=O)CN3CCCC3)cc2)C2CCCCC2)cc1", "note": "[maleic acid salt, N,N′-[(cyclohexylmethylene)di-4,1-phenylene]bis[2-(1-pyrrolidinyl)acetamide] maleate]", "values": [{"measurement": "Concentrations of radioactivity in the cerebrum and cerebellum compared with blood", "setting": "[1]", "result": "higher than those in the blood"}, {"measurement": "Radioactivity in tissues relative to plasma", "setting": "[1]", "result": 100, "unit": "fold"}, {"measurement": "Blood concentration of radioactivity/plasma concentration of radioactivity (RB)", "setting": "[1]; iv, 1 mg/kg", "result": 10.18}, {"measurement": "Distribution to blood cells (T)", "setting": "[1]; iv, 1 mg/kg", "result": 93.7, "unit": "%"}, {"measurement": "Radioactivity concentration Blood (Cb)", "setting": "[1]; iv, 1 mg/kg", "result": 39.7, "unit": "ng eq./mL"}, {"measurement": "Radioactivity concentration Plasma (Cp)", "setting": "[1]; iv, 1 mg/kg", "result": 3.9, "unit": "ng eq./mL"}, {"measurement": "Blood concentration of radioactivity/plasma concentration of radioactivity (RB)", "setting": "[1]; iv, 10 mg/kg", "result": 19.52}, {"measurement": "Distribution to blood cells (T)", "setting": "[1]; iv, 10 mg/kg", "result": 96.5, "unit": "%"}, {"measurement": "Radioactivity concentration Blood (Cb)", "setting": "[1]; iv, 10 mg/kg", "result": 407.9, "unit": "ng eq./mL"}, {"measurement": "Radioactivity concentration Plasma (Cp)", "setting": "[1]; iv, 10 mg/kg", "result": 20.9, "unit": "ng eq./mL"}, {"measurement": "Blood concentration of radioactivity/plasma concentration of radioactivity (RB)", "setting": "[1]; po, 1 mg/kg", "result": 4.55}, {"measurement": "Distribution to blood cells (T)", "setting": "[1]; po, 1 mg/kg", "result": 86.0, "unit": "%"}, {"measurement": "Radioactivity concentration Blood (Cb)", "setting": "[1]; po, 1 mg/kg", "result": 10.0, "unit": "ng eq./mL"}, {"measurement": "Radioactivity concentration Plasma (Cp)", "setting": "[1]; po, 1 mg/kg", "result": 2.2, "unit": "ng eq./mL"}, {"measurement": "tmax Time required to reach maximum radioactivity concentration", "setting": "[2]", "result": 4.0, "unit": "h"}]}
